Source: ChEMBL document CHEMBL1141367, “Substituted 2-[(4-aminomethyl)phenoxy]-2-methylpropionic acid PPARalpha agonists. 1. Discovery of a novel series of potent HDLc raising agents” (J Med Chem, 2007)

Experiments:
Mus musculus = assay: Decrease in LDL cholesterol level in human Apo-A-I transgenic C57BL/6 mouse at 0.5 mg/kg, po; format: functional; parameters: scale not given: the % may be the effect or the level left
[1] = Plasma clearance in Beagle dog at 2 mg/kg, iv; format: ADME, organism-based, Canis lupus familiaris; parameters: dose 2 mg/kg, route intravenous
[2] = molecular target: T1, Peroxisome proliferator-activated receptor delta (Homo sapiens, UniProt Q03181)
T1 sequence (Q03181 whole entry): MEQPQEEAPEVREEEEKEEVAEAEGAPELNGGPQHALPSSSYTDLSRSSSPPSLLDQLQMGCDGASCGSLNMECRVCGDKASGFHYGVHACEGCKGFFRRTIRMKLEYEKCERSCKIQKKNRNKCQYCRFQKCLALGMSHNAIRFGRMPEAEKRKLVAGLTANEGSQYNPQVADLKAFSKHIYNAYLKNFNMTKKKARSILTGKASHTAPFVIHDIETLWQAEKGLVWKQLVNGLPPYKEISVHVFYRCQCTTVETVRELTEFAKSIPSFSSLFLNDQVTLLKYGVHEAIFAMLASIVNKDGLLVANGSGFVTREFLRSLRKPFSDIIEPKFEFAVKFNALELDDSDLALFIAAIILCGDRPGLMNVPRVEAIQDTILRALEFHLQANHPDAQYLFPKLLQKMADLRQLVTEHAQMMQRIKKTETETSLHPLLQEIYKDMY
Description: Agonist potency at PPARdelta in CV1 cells by cell based transient transfection assay

[3] = Half life in Wistar rat plasma at 2.7 mg/kg, iv; format: ADME, organism-based; parameters: dose 2.7 mg/kg, route intravenous
[4] = molecular target: T2, Peroxisome proliferator-activated receptor delta (Mus musculus, UniProt P35396)
T2 sequence (P35396 whole entry): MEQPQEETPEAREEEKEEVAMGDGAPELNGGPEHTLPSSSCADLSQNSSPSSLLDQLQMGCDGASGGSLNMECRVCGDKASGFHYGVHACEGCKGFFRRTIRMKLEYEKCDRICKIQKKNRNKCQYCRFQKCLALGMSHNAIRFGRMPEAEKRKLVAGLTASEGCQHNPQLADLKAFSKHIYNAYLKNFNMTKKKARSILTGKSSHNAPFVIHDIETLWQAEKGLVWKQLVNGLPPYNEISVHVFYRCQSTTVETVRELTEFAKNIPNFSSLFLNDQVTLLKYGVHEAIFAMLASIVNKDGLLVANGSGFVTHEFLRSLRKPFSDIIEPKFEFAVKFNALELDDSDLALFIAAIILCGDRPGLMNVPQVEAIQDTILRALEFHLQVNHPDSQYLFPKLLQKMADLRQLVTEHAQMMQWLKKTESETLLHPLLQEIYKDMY
Description: Agonist potency at mouse PPARdelta

Canis familiaris = assay: Plasma concentration in Beagle dog at 3 mg/kg, po; format: ADME, organism-based, Canis lupus familiaris; parameters: dose 3 mg/kg, route oral; settings: in vivo

Molecule `Cc1nc(-c2ccc(C(F)(F)F)cc2)sc1C(=O)NCc1ccc(OC(C)(C)C(=O)O)cc1` [GW590735] has an Activity (Mus musculus) of 61%, a clearance [1] of 13 mL/min/kg and an EC50 [2] of 2830 nM. For the same molecule, the half-life [3] was 2.4 h, the EC50 [4] was 1000 nM and the Cp (Canis familiaris) was 1449 ng/mL.
